# Measured values published in PMC11003488 (Journal of Enzyme Inhibition and Medicinal Chemistry, 2023).
# Columns and labels:
# Assay in all cases: NCI-60 SRB growth inhibition, one-dose and five-dose
# Assay type in all cases: cell-based
# CCRF-CEM = settings: Homo sapiens, read-out: percent growth inhibition
# UACC-257 = settings: Homo sapiens, UACC-257, read-out: percent growth inhibition
# LOX IMVI = settings: Homo sapiens, read-out: percent growth inhibition
# HOP-62 = settings: Homo sapiens, HOP-62, read-out: percent growth inhibition
# MALME-3M = settings: Homo sapiens, read-out: percent growth inhibition
# SK-OV-3 = settings: Homo sapiens, SK-OV-3, read-out: percent growth inhibition
# ACHN = settings: Homo sapiens, read-out: percent growth inhibition
# SK-MEL-5 = settings: Homo sapiens, SK-MEL-5, read-out: percent growth inhibition
# NCI-H226 = settings: Homo sapiens, NCI-H226, read-out: percent growth inhibition
# SF-295 = settings: Homo sapiens, SF-295, read-out: percent growth inhibition
# HT29 = settings: Homo sapiens, HT-29, read-out: percent growth inhibition
# MDA-MB-435 = settings: Homo sapiens, MDA-MB-435, read-out: percent growth inhibition
# MDA-MB-468 = settings: Homo sapiens, MDA-MB-468, read-out: percent growth inhibition
# COLO 205 = settings: Homo sapiens, COLO 205, read-out: percent growth inhibition
# DU-145 = settings: Homo sapiens, DU-145, read-out: percent growth inhibition
# OVCAR-4 = settings: Homo sapiens, OVCAR-4, read-out: percent growth inhibition
# KM12 = settings: Homo sapiens, KM12, read-out: percent growth inhibition
SMILES,inhibition at 10 µM (CCRF-CEM),inhibition at 10 µM (UACC-257),inhibition at 10 µM (LOX IMVI),inhibition at 10 µM (HOP-62),inhibition at 10 µM (MALME-3M),inhibition at 10 µM (SK-OV-3),inhibition at 10 µM (ACHN),inhibition at 10 µM (SK-MEL-5),inhibition at 10 µM (NCI-H226),inhibition at 10 µM (SF-295),inhibition at 10 µM (HT29),inhibition at 10 µM (MDA-MB-435),inhibition at 10 µM (MDA-MB-468),inhibition at 10 µM (COLO 205),inhibition at 10 µM (DU-145),inhibition at 10 µM (OVCAR-4),inhibition at 10 µM (KM12)
"CC(=O)Nc1ccc(CNc2cccc(C(=O)/C=C/c3c[nH]cn3)c2)cc1 [Compound 5l, (E)-N-(4-(((3–(3-(1H-imidazol-4-yl)acryloyl)phenyl)amino)methyl)phenyl)acetamide]",98%,19.3%,45.3%,5.06%,26.4%,-9.94%,15.4%,16%,21.7%,-1.21%,8.22%,11%,84%,-8.23%,11.1%,17.3%,43.6%
"O=C(/C=C/c1c[nH]cn1)c1cccc(NCc2ccc(CO)cc2)c1 [Compound 5m, (E)-1–(3-((4-(hydroxymethyl)benzyl)amino)phenyl)-3-(1H-imidazol-4-yl)prop-2-en-1-one]",45.6%,22.5%,58.6%,13.9%,23.1%,-2.54%,16.6%,21.7%,14.6%,4.92%,24.9%,8.36%,80.5%,-0.06%,6.04%,22%,9.57%
"O=C(/C=C/c1c[nH]cn1)c1cccc(NCc2ccc3oc(=O)ccc3c2)c1 [Compound 5n, (E)-6-(((3–(3-(1H-imidazol-4-yl)acryloyl)phenyl)amino)methyl)-2H-chromen-2-one]",62.1%,43.6%,75.9%,24.3%,37.8%,-4.46%,24.8%,30.6%,28.2%,12.6%,63.2%,14.5%,83.2%,29.2%,20.9%,39.2%,25.1%
